# Experimental data taken from PMC8253220, “Molecular design, synthesis and in vitro biological evaluation of thienopyrimidine–hydroxamic acids as chimeric kinase HDAC inhibitors: a challenging approach to combat cancer” (Journal of Enzyme Inhibition and Medicinal Chemistry, 2021).
# Legend:
# [1] = molecular target: T1, HDAC6 (Homo sapiens, UniProt Q9UBN7); assay: In vitro HDAC6 inhibitory assay (BPS Bioscience, fluorogenic); format: biochemical; conditions: 10 µM
# T1 construct: purchased BPS Bioscience 50006
# T1 sequence (Q9UBN7 1-1215): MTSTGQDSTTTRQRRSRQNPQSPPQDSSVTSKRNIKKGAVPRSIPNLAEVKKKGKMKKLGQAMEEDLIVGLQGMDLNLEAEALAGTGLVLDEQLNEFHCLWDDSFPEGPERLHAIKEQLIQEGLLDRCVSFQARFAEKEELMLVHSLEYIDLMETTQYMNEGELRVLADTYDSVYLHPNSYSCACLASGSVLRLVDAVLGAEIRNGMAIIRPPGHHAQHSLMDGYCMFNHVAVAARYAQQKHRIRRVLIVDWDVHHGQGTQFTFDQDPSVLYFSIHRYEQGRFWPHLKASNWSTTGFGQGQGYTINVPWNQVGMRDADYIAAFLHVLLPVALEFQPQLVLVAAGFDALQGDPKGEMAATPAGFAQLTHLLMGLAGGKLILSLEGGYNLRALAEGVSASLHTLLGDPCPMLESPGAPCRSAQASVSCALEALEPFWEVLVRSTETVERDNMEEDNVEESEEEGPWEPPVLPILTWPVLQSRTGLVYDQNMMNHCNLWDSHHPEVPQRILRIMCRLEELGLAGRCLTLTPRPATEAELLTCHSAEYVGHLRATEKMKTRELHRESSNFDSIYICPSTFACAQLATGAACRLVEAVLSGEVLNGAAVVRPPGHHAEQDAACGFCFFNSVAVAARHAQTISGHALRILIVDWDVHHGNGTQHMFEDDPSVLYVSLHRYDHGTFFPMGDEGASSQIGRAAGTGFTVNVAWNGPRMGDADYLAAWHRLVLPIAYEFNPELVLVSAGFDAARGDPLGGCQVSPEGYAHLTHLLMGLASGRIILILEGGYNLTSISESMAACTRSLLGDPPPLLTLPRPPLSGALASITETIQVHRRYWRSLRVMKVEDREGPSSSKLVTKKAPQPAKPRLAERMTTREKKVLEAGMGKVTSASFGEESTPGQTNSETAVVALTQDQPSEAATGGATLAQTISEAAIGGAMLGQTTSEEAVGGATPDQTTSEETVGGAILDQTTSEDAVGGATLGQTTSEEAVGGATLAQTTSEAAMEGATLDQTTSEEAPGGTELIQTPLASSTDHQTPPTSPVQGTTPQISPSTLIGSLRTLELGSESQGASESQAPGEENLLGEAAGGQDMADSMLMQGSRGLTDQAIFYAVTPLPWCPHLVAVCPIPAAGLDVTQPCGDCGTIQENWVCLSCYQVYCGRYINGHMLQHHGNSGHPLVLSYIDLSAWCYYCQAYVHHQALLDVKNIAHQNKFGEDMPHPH
# Description: (1 picture or pasted object on this page, not shown here)
# HDAC activity assays were performed in duplicates at each concentration. The
# [2] = tested on: full NCI 60 cell panel; assay: NCI one-dose screen, whole panel statistics; format: cell-based, human; conditions: 1.00E-5 Molar; for Mean Growth Percent: mean over panel
# Description: All of the synthesised structures were selected and submitted to NCI based on computer modelling techniques and the degree of diversity of structures for the evaluation of their antiproliferative activity. The 20 synthesised compounds were selected with their respective NCI codes [NCS D-820157- NCS D-820176] for the inhibition percent assay at an initial single dose of 10 μM on the full NCI 60 cell panel, where the mean graph of the percent growth for all compounds on the full NCI cell panel is evaluated, compared to the untreated control cells (Supplementary Material). In vitro cell line inhibition % of all synthesised compounds is represented in (Table 1 of Supplementary Material).
# All of the synthesised compounds (20) were submitted to NCI and selected for in vitro anticancer assay against a panel of 60 cancer cell lines. The methodology of assay and calculations is as reported.
Structure (SMILES),melting point [°C],Mean % inhibition HDAC6 [1] [%],inhibition at 10 µM [1] [%],Delta (one dose mean graph) [2] [%],Range (one dose mean graph) [2] [%],Mean Growth Percent [2] [%]
"Cc1c(C(=O)NO)sc2ncnc(Nc3ccc(NC(=O)Nc4ccccc4)cc3)c12 [Compound 7a, 1–(4-(6-(hydroxycarbamoyl)-5-methylthieno[2,3-d]pyrimidin-4-ylamino)phenyl)-3-phenylurea]",> 200,5,7,24.69,48.09,99.34
"COc1cccc(NC(=O)Nc2ccc(Nc3ncnc4sc(C(=O)NO)c(C)c34)cc2)c1 [Compound 7b, 1–(4-(6-(hydroxycarbamoyl)-5-methylthieno[2,3-d]pyrimidin-4-ylamino)phenyl)-3–(3-methoxyphenyl)urea]",> 200,6,8,18.14,45.12,101.61
"Cc1c(C(=O)NO)sc2ncnc(Nc3ccc(NC(=O)Nc4cccc(C(F)(F)F)c4)cc3)c12 [Compound 7c, 1–(4-(6-(hydroxycarbamoyl)-5-methylthieno[2,3-d]pyrimidin-4-ylamino)phenyl)-3–(3-(trifluoromethyl)phenyl)urea]",285,–,8,43.18,65.35,97.22
"Cc1c(C(=O)NO)sc2ncnc(Nc3ccc(NC(=S)Nc4ccccc4)cc3)c12 [Compound 7d, 1–(4-(6-(hydroxycarbamoyl)-5-methylthieno[2,3-d]pyrimidin-4-ylamino)phenyl)-3-phenylthiourea]",300,–,6,17.28,35.68,102.34
"Cc1c(C(=O)NCCC(=O)NO)sc2ncnc(Nc3ccc(NC(=O)Nc4ccccc4)cc3)c12 [Compound 11a, 1–(4-(6-((3-(hydroxyamino)-3-oxopropyl)carbamoyl)-5-methylthieno[2,3-d]pyrimidin-4-ylamino)phenyl)-3-phenylurea]",225,7,5,21.26,44.07,100.98
"COc1cccc(NC(=O)Nc2ccc(Nc3ncnc4sc(C(=O)NCCC(=O)NO)c(C)c34)cc2)c1 [Compound 11b, 1–(4-(6-((3-(hydroxyamino)-3-oxopropyl)carbamoyl)-5-methylthieno[2,3-d]pyrimidin-4-ylamino)phenyl)-3–(3-methoxyphenyl)urea]",257 to 260,13,–,17.95,40.74,100.99
"Cc1c(C(=O)NCCC(=O)NO)sc2ncnc(Nc3ccc(NC(=O)Nc4cccc(C(F)(F)F)c4)cc3)c12 [Compound 11c, 1–(4-(6-((3-(hydroxyamino)-3-oxopropyl)carbamoyl)-5-methylthieno[2,3-d]pyrimidin-4-ylamino)phenyl)-3–(3-(trifluoromethyl)phenyl)urea]",281,–,8,23.75,61.62,102.55
"Cc1c(C(=O)NCCCC(=O)NO)sc2ncnc(Nc3ccc(NC(=O)Nc4ccccc4)cc3)c12 [Compound 12a, 1–(4-(6-((4-(hydroxyamino)-4-oxobutyl)carbamoyl)-5-methylthieno[2,3-d]pyrimidin-4-ylamino)phenyl)-3-phenylurea]",219,–,7,25.38,46.43,100.71
